Source: patent US10556888B2, “Pyrazole compounds or salts thereof, preparation methods therefor, herbicidal compositions and use thereof” (QINGDAO KINGAGROOT CHEMICAL COMPOUNDS CO., LTD, priority 2015, dated 2020)

Assays:
[1] = system: main crop (wheat, corn, rice, soybean, cotton, oilseed, millet and sorghum); assay: Post-emergence test experiment, main crops (Table 2); type: in vivo; set-up: key: Level 10: completely dead; Level 9: above 90% growth inhibition rate; Level 8: above 80% growth inhibition rate; Level 7: above 70% growth inhibition rate; Level 6: above 60% growth inhibition rate; Level 5: above 50% growth inhibition rate; Level 4: above 30% growth inhibition rate; Level 3: above 20% growth inhibition rate; Level 2: above 10% growth inhibition rate; Level 1: above 1-10% growth inhibition rate; Level 0: no effect; conditions: 3 weeks after spraying, greenhouse
Protocol: (§1) Post-emergence test experiment: Monocotyledonous and dicotyledonous weed seeds and main crop seeds (i.e. wheat, corn, rice, soybean, cotton, oilseed, millet and sorghum.) were put into a plastic pot loaded with soil. Then covered with 0.5-2 cm soil, the seeds were allowed to grow in good greenhouse environment. The test plants were treated at 2-3 leaf stage 2-3 weeks after sowing. The test compounds of the invention were dissolved with acetone respectively, then added with 80 tween and diluted by certain amount of water to certain concentration. The solution was sprayed to the plants with a sprayer. Then the plants were cultured for 3 weeks in the greenhouse.

[2] = system: Monocotyledonous and dicotyledonous weed; assay: Post-emergence test experiment, weed control effect (Table 2); type: in vivo; set-up: key to weed control effect, Setaria viridis (level) / weed control effect, Rorippa indica (level) / weed control effect, Abutilon theophrasti (level) / weed control effect, Echinochloa crus-galli (level) / weed control effect, Digitaria sanguinalis (level): Level 10: completely dead; Level 9: above 90% growth inhibition rate; Level 8: above 80% growth inhibition rate; Level 7: above 70% growth inhibition rate; Level 6: above 60% growth inhibition rate; Level 5: above 50% growth inhibition rate; Level 4: above 30% growth inhibition rate; Level 3: above 20% growth inhibition rate; Level 2: above 10% growth inhibition rate; Level 1: above 1-10% growth inhibition rate; Level 0: no effect; conditions: 3 weeks after spraying, greenhouse
Protocol: as §1

C#CCOCc1c(S(C)(=O)=O)ccc(C(=O)c2c(C)nn(C)c2OC(=O)c2cn(C)nc2C)c1Cl [Compound 33]
effect on crop, corn (level) ([1]; 30 g/ha): 1 (Level 1: above 1-10% growth inhibition rate)
effect on crop, rice (level) ([1]; 30 g/ha): 5 (Level 5: above 50% growth inhibition rate)
effect on crop, wheat (level) ([1]; 30 g/ha): 0
weed control effect, Abutilon theophrasti (level) ([2]; 30 g/ha): 7 (Level 7: above 70% growth inhibition rate)
weed control effect, Bidens pilosa (level) ([2]; 30 g/ha): 7 (Level 7: above 70% growth inhibition rate)
weed control effect, Digitaria sanguinalis (level) ([2]; 30 g/ha): 9 (Level 9: above 90% growth inhibition rate)
weed control effect, Echinochloa crus-galli (level) ([2]; 30 g/ha): 9 (Level 9: above 90% growth inhibition rate)
weed control effect, Rorippa indica (level) ([2]; 30 g/ha): 5 (Level 5: above 50% growth inhibition rate)
weed control effect, Setaria viridis (level) ([2]; 30 g/ha): 9 (Level 9: above 90% growth inhibition rate)

CCCCOCc1c(S(C)(=O)=O)ccc(C(=O)c2c(C)nn(C)c2OC(=O)c2cn(C)nc2C)c1Cl [Compound 34]
effect on crop, corn (level) ([1]; 60 g/ha): 0
effect on crop, rice (level) ([1]; 60 g/ha): 1 (Level 1: above 1-10% growth inhibition rate)
effect on crop, wheat (level) ([1]; 60 g/ha): 0
weed control effect, Abutilon theophrasti (level) ([2]; 60 g/ha): 10
weed control effect, Bidens pilosa (level) ([2]; 60 g/ha): 8 (Level 8: above 80% growth inhibition rate)
weed control effect, Digitaria sanguinalis (level) ([2]; 60 g/ha): 10
weed control effect, Echinochloa crus-galli (level) ([2]; 60 g/ha): 10
weed control effect, Rorippa indica (level) ([2]; 60 g/ha): 10
weed control effect, Setaria viridis (level) ([2]; 60 g/ha): 8 (Level 8: above 80% growth inhibition rate)

Cc1nn(C)cc1C(=O)Oc1c(C(=O)c2ccc(S(C)(=O)=O)c(COCC(F)(F)C(F)F)c2Cl)c(C)nn1C [Compound 35]
effect on crop, corn (level) ([1]; 30 g/ha): 1 (Level 1: above 1-10% growth inhibition rate)
effect on crop, rice (level) ([1]; 30 g/ha): 5 (Level 5: above 50% growth inhibition rate)
effect on crop, wheat (level) ([1]; 30 g/ha): 0
weed control effect, Abutilon theophrasti (level) ([2]; 30 g/ha): 7 (Level 7: above 70% growth inhibition rate)
weed control effect, Bidens pilosa (level) ([2]; 30 g/ha): 7 (Level 7: above 70% growth inhibition rate)
weed control effect, Digitaria sanguinalis (level) ([2]; 30 g/ha): 7 (Level 7: above 70% growth inhibition rate)
weed control effect, Echinochloa crus-galli (level) ([2]; 30 g/ha): 10
weed control effect, Rorippa indica (level) ([2]; 30 g/ha): 5 (Level 5: above 50% growth inhibition rate)
weed control effect, Setaria viridis (level) ([2]; 30 g/ha): 6 (Level 6: above 60% growth inhibition rate)

COCCCOCc1c(S(C)(=O)=O)ccc(C(=O)c2c(C)nn(C)c2OC(=O)c2cn(C)nc2C)c1Cl [Compound 37]
effect on crop, corn (level) ([1]; 60 g/ha): 0
effect on crop, rice (level) ([1]; 60 g/ha): 1 (Level 1: above 1-10% growth inhibition rate)
effect on crop, wheat (level) ([1]; 60 g/ha): 0
weed control effect, Abutilon theophrasti (level) ([2]; 60 g/ha): 10
weed control effect, Bidens pilosa (level) ([2]; 60 g/ha): 8 (Level 8: above 80% growth inhibition rate)
weed control effect, Digitaria sanguinalis (level) ([2]; 60 g/ha): 10
weed control effect, Echinochloa crus-galli (level) ([2]; 60 g/ha): 9 (Level 9: above 90% growth inhibition rate)
weed control effect, Rorippa indica (level) ([2]; 60 g/ha): 10
weed control effect, Setaria viridis (level) ([2]; 60 g/ha): 5 (Level 5: above 50% growth inhibition rate)

CC=CCOCc1c(S(C)(=O)=O)ccc(C(=O)c2c(C)nn(C)c2OC(=O)c2cn(C)nc2C)c1Cl [Compound 38]
effect on crop, corn (level) ([1]; 60 g/ha): 0
effect on crop, rice (level) ([1]; 60 g/ha): 1 (Level 1: above 1-10% growth inhibition rate)
effect on crop, wheat (level) ([1]; 60 g/ha): 0
weed control effect, Abutilon theophrasti (level) ([2]; 60 g/ha): 10
weed control effect, Bidens pilosa (level) ([2]; 60 g/ha): 8 (Level 8: above 80% growth inhibition rate)
weed control effect, Digitaria sanguinalis (level) ([2]; 60 g/ha): 8 (Level 8: above 80% growth inhibition rate)
weed control effect, Echinochloa crus-galli (level) ([2]; 60 g/ha): 8 (Level 8: above 80% growth inhibition rate)
weed control effect, Rorippa indica (level) ([2]; 60 g/ha): 10
weed control effect, Setaria viridis (level) ([2]; 60 g/ha): 10

CCOCCOCc1c(S(C)(=O)=O)ccc(C(=O)c2c(C)nn(C)c2OC(=O)c2cn(C)nc2C)c1Cl [Compound 39]
effect on crop, corn (level) ([1]; 60 g/ha): 0
effect on crop, rice (level) ([1]; 60 g/ha): 1 (Level 1: above 1-10% growth inhibition rate)
effect on crop, wheat (level) ([1]; 60 g/ha): 0
weed control effect, Abutilon theophrasti (level) ([2]; 60 g/ha): 10
weed control effect, Bidens pilosa (level) ([2]; 60 g/ha): 8 (Level 8: above 80% growth inhibition rate)
weed control effect, Digitaria sanguinalis (level) ([2]; 60 g/ha): 9 (Level 9: above 90% growth inhibition rate)
weed control effect, Echinochloa crus-galli (level) ([2]; 60 g/ha): 10
weed control effect, Rorippa indica (level) ([2]; 60 g/ha): 10
weed control effect, Setaria viridis (level) ([2]; 60 g/ha): 10

C#CCOCc1c(S(C)(=O)=O)ccc(C(=O)c2cnn(C)c2OC(=O)c2cn(C)nc2C)c1Cl [Compound 41]
effect on crop, corn (level) ([1]; 30 g/ha): 0
effect on crop, rice (level) ([1]; 30 g/ha): 5 (Level 5: above 50% growth inhibition rate)
effect on crop, wheat (level) ([1]; 30 g/ha): 0
weed control effect, Abutilon theophrasti (level) ([2]; 30 g/ha): 7 (Level 7: above 70% growth inhibition rate)
weed control effect, Bidens pilosa (level) ([2]; 30 g/ha): 7 (Level 7: above 70% growth inhibition rate)
weed control effect, Digitaria sanguinalis (level) ([2]; 30 g/ha): 8 (Level 8: above 80% growth inhibition rate)
weed control effect, Echinochloa crus-galli (level) ([2]; 30 g/ha): 10
weed control effect, Rorippa indica (level) ([2]; 30 g/ha): 10
weed control effect, Setaria viridis (level) ([2]; 30 g/ha): 10

CCOCc1c(S(C)(=O)=O)ccc(C(=O)c2cnn(C)c2OC(=O)c2cn(C)nc2C)c1Cl [Compound 42]
effect on crop, corn (level) ([1]; 30 g/ha): 0
effect on crop, rice (level) ([1]; 30 g/ha): 5 (Level 5: above 50% growth inhibition rate)
effect on crop, wheat (level) ([1]; 30 g/ha): 0
weed control effect, Abutilon theophrasti (level) ([2]; 30 g/ha): 7 (Level 7: above 70% growth inhibition rate)
weed control effect, Bidens pilosa (level) ([2]; 30 g/ha): 7 (Level 7: above 70% growth inhibition rate)
weed control effect, Digitaria sanguinalis (level) ([2]; 30 g/ha): 7 (Level 7: above 70% growth inhibition rate)
weed control effect, Echinochloa crus-galli (level) ([2]; 30 g/ha): 10
weed control effect, Rorippa indica (level) ([2]; 30 g/ha): 10
weed control effect, Setaria viridis (level) ([2]; 30 g/ha): 9 (Level 9: above 90% growth inhibition rate)

CC=CCOCc1c(S(C)(=O)=O)ccc(C(=O)c2cnn(C)c2OC(=O)c2cn(C)nc2C)c1Cl [Compound 43]
effect on crop, corn (level) ([1]; 30 g/ha): 0
effect on crop, rice (level) ([1]; 30 g/ha): 3 (Level 3: above 20% growth inhibition rate)
effect on crop, wheat (level) ([1]; 30 g/ha): 0
weed control effect, Abutilon theophrasti (level) ([2]; 30 g/ha): 7 (Level 7: above 70% growth inhibition rate)
weed control effect, Bidens pilosa (level) ([2]; 30 g/ha): 7 (Level 7: above 70% growth inhibition rate)
weed control effect, Digitaria sanguinalis (level) ([2]; 30 g/ha): 7 (Level 7: above 70% growth inhibition rate)
weed control effect, Echinochloa crus-galli (level) ([2]; 30 g/ha): 10
weed control effect, Rorippa indica (level) ([2]; 30 g/ha): 10
weed control effect, Setaria viridis (level) ([2]; 30 g/ha): 9 (Level 9: above 90% growth inhibition rate)

Cc1nn(C)cc1C(=O)Oc1c(C(=O)c2ccc(S(C)(=O)=O)c(COCC(F)(F)F)c2Cl)cnn1C [Compound 44]
effect on crop, corn (level) ([1]; 30 g/ha): 0
effect on crop, rice (level) ([1]; 30 g/ha): 3 (Level 3: above 20% growth inhibition rate)
effect on crop, wheat (level) ([1]; 30 g/ha): 0
weed control effect, Abutilon theophrasti (level) ([2]; 30 g/ha): 7 (Level 7: above 70% growth inhibition rate)
weed control effect, Bidens pilosa (level) ([2]; 30 g/ha): 7 (Level 7: above 70% growth inhibition rate)
weed control effect, Digitaria sanguinalis (level) ([2]; 30 g/ha): 10
weed control effect, Echinochloa crus-galli (level) ([2]; 30 g/ha): 10
weed control effect, Rorippa indica (level) ([2]; 30 g/ha): 10
weed control effect, Setaria viridis (level) ([2]; 30 g/ha): 9 (Level 9: above 90% growth inhibition rate)

CCOCCOCc1c(S(C)(=O)=O)ccc(C(=O)c2cnn(C)c2OC(=O)c2cn(C)nc2C)c1Cl [Compound 45]
effect on crop, corn (level) ([1]; 30 g/ha): 0
effect on crop, rice (level) ([1]; 30 g/ha): 3 (Level 3: above 20% growth inhibition rate)
effect on crop, wheat (level) ([1]; 30 g/ha): 0
weed control effect, Abutilon theophrasti (level) ([2]; 30 g/ha): 7 (Level 7: above 70% growth inhibition rate)
weed control effect, Bidens pilosa (level) ([2]; 30 g/ha): 7 (Level 7: above 70% growth inhibition rate)
weed control effect, Digitaria sanguinalis (level) ([2]; 30 g/ha): 7 (Level 7: above 70% growth inhibition rate)
weed control effect, Echinochloa crus-galli (level) ([2]; 30 g/ha): 9 (Level 9: above 90% growth inhibition rate)
weed control effect, Rorippa indica (level) ([2]; 30 g/ha): 10
weed control effect, Setaria viridis (level) ([2]; 30 g/ha): 7 (Level 7: above 70% growth inhibition rate)
